According to US9409907B2, “Inhibitor compounds” (Cancer Research Technology Limited, priority 2012, dated 2016):

Each compound was assayed against full length MPS1 (Homo sapiens (Human), UniProt P33981) (assay: Measurement of inhibition of MPS1 kinase (Caliper EZ reader mobility-shift enzyme assay)). Conditions: full length MPS1 12.5 nM or 3 nM, H236 peptide 5 μM, ATP 10 μM, 60 min at room temperature.
Format: biochemical
Method: Measurement of Inhibition of MPS1 Kinase
The reaction was carried out for 60 min at room temperature and stopped by the addition of buffer (10 μl) containing 20 mM EDTA, 0.05% (v/v) Brij-35, in 0.1M HEPES-buffered saline (Free acid, Sigma, UK). The plate was read on a Caliper EZ reader II (Caliper Life Sciences).
The % inhibition of the compounds is calculated relative to the means of selected control wells.

full length MPS1, sequence (P33981 whole entry): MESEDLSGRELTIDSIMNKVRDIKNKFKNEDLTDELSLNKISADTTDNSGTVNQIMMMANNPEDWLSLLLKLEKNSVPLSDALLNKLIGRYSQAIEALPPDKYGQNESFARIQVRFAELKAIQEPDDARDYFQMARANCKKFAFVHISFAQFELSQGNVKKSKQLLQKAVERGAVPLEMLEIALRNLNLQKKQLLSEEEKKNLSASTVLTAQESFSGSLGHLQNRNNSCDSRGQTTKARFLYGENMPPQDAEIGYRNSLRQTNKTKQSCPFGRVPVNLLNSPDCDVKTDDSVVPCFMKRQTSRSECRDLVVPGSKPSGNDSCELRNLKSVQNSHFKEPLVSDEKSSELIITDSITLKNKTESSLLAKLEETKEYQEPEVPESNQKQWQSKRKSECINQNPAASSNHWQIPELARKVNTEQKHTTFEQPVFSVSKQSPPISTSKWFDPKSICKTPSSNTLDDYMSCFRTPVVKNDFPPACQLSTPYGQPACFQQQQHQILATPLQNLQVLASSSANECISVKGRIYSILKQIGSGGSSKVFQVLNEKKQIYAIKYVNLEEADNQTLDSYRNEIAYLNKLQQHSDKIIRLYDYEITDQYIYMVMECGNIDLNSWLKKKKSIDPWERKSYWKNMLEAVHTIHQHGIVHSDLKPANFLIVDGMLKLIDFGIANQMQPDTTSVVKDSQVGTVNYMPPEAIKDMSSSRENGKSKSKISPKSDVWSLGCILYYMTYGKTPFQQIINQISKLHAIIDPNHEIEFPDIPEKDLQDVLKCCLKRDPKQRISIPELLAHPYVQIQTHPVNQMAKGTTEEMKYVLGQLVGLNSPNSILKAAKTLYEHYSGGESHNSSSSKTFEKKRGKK

Compound	IC50 [nM]
COc1cc(-c2cnn(C)c2)ccc1Nc1ncc2ccnc(NCC3(C)CCOC3)c2n1 (racemic) [Example 117, N^2-(2-methoxy-4-(1-methyl-1H-pyrazol-4-yl)phenyl)-N^8-((3-methyltetrahydrofuran-3-yl)methyl)pyrido[3,4-d]pyrimidine-2,8-diamine]	3
COCCn1cc(-c2cccc3cnc(Nc4ccc(C(=O)N5CC(OC)C5)cc4OC)cc23)cn1 [Example 2, (3-methoxy-4-((5-(1-(2-methoxyethyl)-1H-pyrazol-4-yl)isoquinolin-3-yl)amino)phenyl)(3-methoxyazetidin-1-yl)methanone]	14
COc1cc(C(=O)N2CC(OC)C2)ccc1Nc1cc2c(-c3cnn(C4CCN(C(=O)OC(C)(C)C)CC4)c3)cccc2cn1 [Example 3, tert-butyl 4-(4-(3-((2-methoxy-4-(3-methoxyazetidine-1-carbonyl)phenyl)-amino)isoquinolin-5-yl)-1H-pyrazol-1-yl)piperidine-1-carboxylate]	125
COc1cc(C(=O)N2CC(OC)C2)ccc1Nc1cc2c(-c3cncn3C)cccc2cn1 [Example 4, (3-methoxy-4-((5-(1-methyl-1H-imidazol-5-yl)isoquinolin-3-yl)amino)phenyl)(3-methoxyazetidin-1-yl)methanone]	112
CN1CCC(NC(=O)c2ccc(Nc3cc4c(-c5cnn(C)c5)cccc4cn3)c(OC(F)(F)F)c2)CC1 [Example 6, 4-((5-(1-methyl-1H-pyrazol-4-yl)isoquinolin-3-yl)amino)-N-(1-methylpiperidin-4-yl)-3-(trifluoromethoxy)benzamide]	293
COc1cc(C(=O)N2CC(OC)C2)ccc1Nc1cc2c(-c3cnn(C(C)C)c3)cccc2cn1 [Example 7, (4-((5-(1-isopropyl-1H-pyrazol-4-yl)isoquinolin-3-yl)amino)-3-methoxyphenyl)(3-methoxyazetidin-1-yl)methanone]	11
COc1cc(C(=O)N2CC(OC)C2)ccc1Nc1cc2c(-c3cn(C)nc3C)cccc2cn1 [Example 8, (4-((5-(1,3-dimethyl-1H-pyrazol-4-yl)isoquinolin-3-yl)amino)-3-methoxyphenyl)(3-methoxyazetidin-1-yl)methanone]	27

Further lines, results first:

IC50 [nM]	Compound
3	COc1cc(-c2cnn(C)c2)ccc1Nc1ncc2ccnc(NC(C)C3CCOC3)c2n1 (racemic) [Example 125, Racemic N^2-(2-methoxy-4-(1-methyl-1H-pyrazol-4-yl)phenyl)-N^8-(1-(tetrahydrofuran-3-yl)ethyl)pyrido[3,4-d]pyrimidine-2,8-diamine]
7	COc1cc(-c2cnn(C)c2)ccc1Nc1ncc2ccnc(NC(C)CO)c2n1 (racemic) [Example 129, Racemic 2-(2-(2-Methoxy-4-(1-methyl-1H-pyrazol-4-yl)phenylamino)pyrido[3,4-d]pyrimidin-8-ylamino)propan-1-ol]
5	COc1cc(-c2cnn(C)c2)ccc1Nc1ncc2ccnc(N[S+]([O-])C(C)(C)C)c2n1 (racemic) [Example 143, (±)-N-(2-(2-methoxy-4-(1-methyl-1H-pyrazol-4-yl)phenylamino)pyrido[3,4-d]pyrimidin-8-yl)-2-methylpropane-2-sulfinamide]
61	COc1cc(C(=O)N2CC(OC)C2)ccc1Nc1cc2c(-c3cnn(CCN(C)C)c3)cccc2cn1 [Example 1, (4-((5-(1-(2-(Dimethylamino)ethyl)-1H-pyrazol-4-yl)isoquinolin-3-yl)amino)-3-methoxyphenyl)(3-methoxyazetidin-1-yl)methanone]
261	COc1cc(C(=O)N2CC(OC)C2)ccc1Nc1cc2c(-c3c(C)noc3C)cccc2cn1 [Example 5, (4-((5-(3,5-dimethylisoxazol-4-yl)isoquinolin-3-yl)amino)-3-methoxyphenyl)(3-methoxyazetidin-1-yl)methanone]
22	COc1cc(C(=O)N2CC(OC)C2)ccc1Nc1cc2c(-c3ccnn3C)cccc2cn1 [Example 9, (3-methoxy-4-((5-(1-methyl-1H-pyrazol-5-yl)isoquinolin-3-yl)amino)phenyl)(3-methoxyazetidin-1-yl)methanone]
